How the values were obtained:
patients with AD = test: Administering T3 to patients with AD (clinical observation); type: in vivo, human
From the text: The noradrenerigic neurotransmitter system is dependent on normal thyroid hormone activity for normal function. A deficient amount of thyroid hormone activity leads to downregulation of the noradrenergic system. This leads to attenuated postsynaptic effects and a failure to prosecute the noradrenergic mandate. In AD this phenomenon accounts for various signs and symptoms. There are aberrations of the diurnal rhythm including insomnia and daytime somnolence. Depression and/or anxiety may occur. Drooping of the upper eyelid (ptosis) is frequently seen in AD. The levator palpebrae superioris muscle, the elevator of the upper eyelid, is partially innervated by the sympathetic nervous system.

[1] = following ingestion; cited from earlier work
rat model of AD = rat model of AD (Sarkar); cited from earlier work
[2] = compounding pharmacies' technology, personal communication; cited from earlier work

N[C@@H](Cc1cc(I)c(Oc2ccc(O)c(I)c2)c(I)c1)C(=O)O [T3, 3,5,3′-triiodothyronine]
countenance and alertness (ptosis, adrenergic dysregulation) (patients with AD): rapid, within days, and dramatic wide-eyed countenance and an appearance of increased alertness | time to peak levels [1]: one to two | histology, memory and electrophysiological activity in the cholinergic system (rat model of AD): improved histology, memory and electrophysiological activity in the cholinergic system | time of release to completion [2]: 2 to 8 h

Reference: US20200170932A1, “EXTENDED RELEASE L-TRI-IODOTHYRONINE SAFELY NORMALIZES KEY ELEMENTS OF MOLECULAR PATHOLOGY IN ALZHEIMERS DISEASE” (priority 2018, published 2020)
